The record followed here is US7842316B2, “Cosmetic compositions having extracts of Amomum melegueta and methods of treating skin” (Avon Products, Inc., priority 2007, dated 2010).

This test addresses T1, COX-2 (Ovis aries, UniProt P79208).
T1 sequence (P79208 17-603): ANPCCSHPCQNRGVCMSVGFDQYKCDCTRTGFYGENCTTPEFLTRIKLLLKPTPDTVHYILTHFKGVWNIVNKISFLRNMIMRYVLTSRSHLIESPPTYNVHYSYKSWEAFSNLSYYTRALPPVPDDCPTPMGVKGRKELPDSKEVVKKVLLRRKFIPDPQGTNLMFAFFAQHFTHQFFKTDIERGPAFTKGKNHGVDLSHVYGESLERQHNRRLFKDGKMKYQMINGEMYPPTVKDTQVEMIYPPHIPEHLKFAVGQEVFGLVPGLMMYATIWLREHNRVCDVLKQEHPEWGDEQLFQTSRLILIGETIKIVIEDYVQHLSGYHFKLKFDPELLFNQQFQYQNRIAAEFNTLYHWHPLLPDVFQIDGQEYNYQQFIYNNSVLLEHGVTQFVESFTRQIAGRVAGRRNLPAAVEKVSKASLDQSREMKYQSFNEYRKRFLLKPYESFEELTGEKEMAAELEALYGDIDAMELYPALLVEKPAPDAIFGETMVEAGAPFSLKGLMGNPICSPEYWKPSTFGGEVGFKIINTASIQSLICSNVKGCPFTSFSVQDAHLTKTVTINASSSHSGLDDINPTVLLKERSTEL
The test is described as follows: colorimetric COX (ovine) inhibitor screening assay. The test is classed as biochemical. The following applies: Vioxx used as positive control; concentration not given.

`CS(=O)(=O)c1ccc(C2=C(c3ccccc3)C(=O)OC2)cc1` [Vioxx]: the “level of inhibition (COX-2 inhibitory activity), positive control” value is 90%.
